Measured values: article PMC3445516 (PLoS ONE, 2012)

Tests used:
Assay in all cases: Ambit kinase profiling, competition binding
[1] = molecular target: T1, AMPK-alpha1 (Homo sapiens, UniProt Q13131); settings: compound concentration 10 uM, read-out: Percent Competition
T1 construct: purchased Ambit Biosciences (KINOMEscan)
From the text: (§1) Supplement pone.0044653.s004.xls, sheet "Compound 122" | column: Percent Competition

[2] = molecular target: T2, AAK1 (Homo sapiens, UniProt Q2M2I8); settings: compound concentration 10 uM, read-out: Percent Competition
T2 construct: purchased Ambit Biosciences (KINOMEscan)
From the text: as §1

[3] = molecular target: T3, PDGFRB (Homo sapiens, UniProt P09619); settings: compound concentration 10 uM, read-out: Percent Competition
T3 construct: purchased Ambit Biosciences (KINOMEscan)
From the text: as §1

[4] = molecular target: T4, LKB1 (Homo sapiens, UniProt Q15831); settings: compound concentration 10 uM, read-out: Percent Competition
T4 construct: purchased Ambit Biosciences (KINOMEscan)
From the text: as §1

[5] = molecular target: T5, PIK3CD (Homo sapiens, UniProt O00329); settings: compound concentration 10 uM, read-out: Percent Competition
T5 construct: purchased Ambit Biosciences (KINOMEscan)
From the text: as §1

[6] = molecular target: T6, GCN2(Kin.Dom.2,S808G) (Homo sapiens, UniProt Q9P2K8, S808G); settings: compound concentration 10 uM, read-out: Percent Competition
T6 construct: GCN2(Kin.Dom.2,S808G); purchased Ambit Biosciences (KINOMEscan)
From the text: as §1

[7] = molecular target: T7, FGFR1 (Homo sapiens, UniProt P11362); settings: compound concentration 10 uM, read-out: Percent Competition
T7 construct: purchased Ambit Biosciences (KINOMEscan)
From the text: as §1

[8] = molecular target: T8, BMX (Homo sapiens, UniProt P51813); settings: compound concentration 10 uM, read-out: Percent Competition
T8 construct: purchased Ambit Biosciences (KINOMEscan)
From the text: as §1

[9] = molecular target: T9, DRAK2 (Homo sapiens, UniProt O94768); settings: compound concentration 10 uM, read-out: Percent Competition
T9 construct: purchased Ambit Biosciences (KINOMEscan)
From the text: as §1

[10] = molecular target: T10, BLK (Homo sapiens, UniProt P51451); settings: compound concentration 10 uM, read-out: Percent Competition
T10 construct: purchased Ambit Biosciences (KINOMEscan)
From the text: as §1

[11] = molecular target: T11, ABL1(Q252H) (Homo sapiens, UniProt P00519, Q252H); settings: compound concentration 10 uM, read-out: Percent Competition
T11 construct: purchased Ambit Biosciences (KINOMEscan)
From the text: as §1

[12] = molecular target: T12, EPHB1 (Homo sapiens, UniProt P54762); settings: compound concentration 10 uM, read-out: Percent Competition
T12 construct: purchased Ambit Biosciences (KINOMEscan)
From the text: as §1

[13] = molecular target: T13, PAK2 (Homo sapiens, UniProt Q13177); settings: compound concentration 10 uM, read-out: Percent Competition
T13 construct: purchased Ambit Biosciences (KINOMEscan)
From the text: as §1

[14] = molecular target: T14, TNK2 (Homo sapiens, UniProt Q07912); settings: compound concentration 10 uM, read-out: Percent Competition
T14 construct: purchased Ambit Biosciences (KINOMEscan)
From the text: as §1

[15] = molecular target: T15, FGFR3 (Homo sapiens, UniProt P22607); settings: compound concentration 10 uM, read-out: Percent Competition
T15 construct: purchased Ambit Biosciences (KINOMEscan)
From the text: as §1

[16] = molecular target: T16, PAK1 (Homo sapiens, UniProt Q13153); settings: compound concentration 10 uM, read-out: Percent Competition
T16 construct: purchased Ambit Biosciences (KINOMEscan)
From the text: as §1

[17] = molecular target: T17, FGR (Homo sapiens, UniProt P09769); settings: compound concentration 10 uM, read-out: Percent Competition
T17 construct: purchased Ambit Biosciences (KINOMEscan)
From the text: as §1

[18] = molecular target: T18, RPS6KA2(Kin.Dom.2-C-terminal) (Homo sapiens, UniProt Q15349); settings: compound concentration 10 uM, read-out: Percent Competition
T18 construct: RPS6KA2(Kin.Dom.2-C-terminal); purchased Ambit Biosciences (KINOMEscan)
From the text: as §1

[19] = molecular target: T19, TRKA (Homo sapiens, UniProt P04629); settings: compound concentration 10 uM, read-out: Percent Competition
T19 construct: purchased Ambit Biosciences (KINOMEscan)
From the text: as §1

[20] = molecular target: T20, DMPK (Homo sapiens, UniProt Q09013); settings: compound concentration 10 uM, read-out: Percent Competition
T20 construct: purchased Ambit Biosciences (KINOMEscan)
From the text: as §1

[21] = molecular target: T21, LIMK1 (Homo sapiens, UniProt P53667); settings: compound concentration 10 uM, read-out: Percent Competition
T21 construct: purchased Ambit Biosciences (KINOMEscan)
From the text: as §1

[22] = molecular target: T22, MAP3K3 (Homo sapiens, UniProt Q99759); settings: compound concentration 10 uM, read-out: Percent Competition
T22 construct: purchased Ambit Biosciences (KINOMEscan)
From the text: as §1

[23] = molecular target: T23, PLK1 (Homo sapiens, UniProt P53350); settings: compound concentration 10 uM, read-out: Percent Competition
T23 construct: purchased Ambit Biosciences (KINOMEscan)
From the text: as §1

[24] = molecular target: T24, LOK (Homo sapiens, UniProt O94804); settings: compound concentration 10 uM
T24 construct: purchased Ambit Biosciences (KINOMEscan)
From the text: as §1

[25] = molecular target: T25, NEK5 (Homo sapiens, UniProt Q6P3R8); settings: compound concentration 10 uM, read-out: Percent Competition
T25 construct: purchased Ambit Biosciences (KINOMEscan)
From the text: as §1

[26] = molecular target: T26, MLK1 (Homo sapiens, UniProt P80192); settings: compound concentration 10 uM, read-out: Percent Competition
T26 construct: purchased Ambit Biosciences (KINOMEscan)
From the text: as §1

[27] = molecular target: T27, HCK (Homo sapiens, UniProt P08631); settings: compound concentration 10 uM, read-out: Percent Competition
T27 construct: purchased Ambit Biosciences (KINOMEscan)
From the text: as §1

[28] = molecular target: T28, PIM1 (Homo sapiens, UniProt P11309); settings: compound concentration 10 uM, read-out: Percent Competition
T28 construct: purchased Ambit Biosciences (KINOMEscan)
From the text: as §1

[29] = molecular target: T29, ERBB2 (Homo sapiens, UniProt P04626); settings: compound concentration 10 uM, read-out: Percent Competition
T29 construct: purchased Ambit Biosciences (KINOMEscan)
From the text: as §1

[30] = molecular target: T30, WEE2 (Homo sapiens, UniProt P0C1S8); settings: compound concentration 10 uM, read-out: Percent Competition
T30 construct: purchased Ambit Biosciences (KINOMEscan)
From the text: as §1

[31] = molecular target: T31, DRAK1 (Homo sapiens, UniProt Q9UEE5); settings: compound concentration 10 uM, read-out: Percent Competition
T31 construct: purchased Ambit Biosciences (KINOMEscan)
From the text: as §1

[32] = molecular target: T32, YSK1 (Homo sapiens, UniProt O00506); settings: compound concentration 10 uM, read-out: Percent Competition
T32 construct: purchased Ambit Biosciences (KINOMEscan)
From the text: as §1

[33] = molecular target: T33, MLCK (Homo sapiens, UniProt Q32MK0); settings: compound concentration 10 uM, read-out: Percent Competition
T33 construct: purchased Ambit Biosciences (KINOMEscan)
From the text: as §1

[34] = molecular target: T34, AKT1 (Homo sapiens, UniProt P31749); settings: compound concentration 10 uM, read-out: Percent Competition
T34 construct: purchased Ambit Biosciences (KINOMEscan)
From the text: as §1

[35] = molecular target: T35, ABL1(F317L) (Homo sapiens, UniProt P00519, F317L); settings: compound concentration 10 uM, read-out: Percent Competition
T35 construct: purchased Ambit Biosciences (KINOMEscan)
From the text: as §1

[36] = molecular target: T36, RIOK2 (Homo sapiens, UniProt Q9BVS4); settings: compound concentration 10 uM, read-out: Percent Competition
T36 construct: purchased Ambit Biosciences (KINOMEscan)
From the text: as §1

[37] = molecular target: T37, RPS6KA1(Kin.Dom.1-N-terminal) (Homo sapiens, UniProt Q15418); settings: compound concentration 10 uM, read-out: Percent Competition
T37 construct: RPS6KA1(Kin.Dom.1-N-terminal); purchased Ambit Biosciences (KINOMEscan)
From the text: as §1

[38] = molecular target: T38, PIP5K2B (Homo sapiens, UniProt P78356); settings: compound concentration 10 uM, read-out: Percent Competition
T38 construct: purchased Ambit Biosciences (KINOMEscan)
From the text: as §1

[39] = molecular target: T39, NDR2 (Homo sapiens, UniProt Q9Y2H1); settings: compound concentration 10 uM, read-out: Percent Competition
T39 construct: purchased Ambit Biosciences (KINOMEscan)
From the text: as §1

[40] = molecular target: T40, ZAP70 (Homo sapiens, UniProt P43403); settings: compound concentration 10 uM, read-out: Percent Competition
T40 construct: purchased Ambit Biosciences (KINOMEscan)
From the text: as §1

Fc1ccc(-c2c(-c3ccncc3)[nH]c3nccnc23)cc1 [RO1155697-000-005]
<50%: Percent Competition [24]
< 50%: inhibition at 10 µM [1] | inhibition at 10 µM [2] | inhibition at 10 µM [3] | inhibition at 10 µM [4] | inhibition at 10 µM [5] | inhibition at 10 µM [6] | inhibition at 10 µM [7] | inhibition at 10 µM [8] | inhibition at 10 µM [9] | inhibition at 10 µM [10] | inhibition at 10 µM [11] | inhibition at 10 µM [12] | inhibition at 10 µM [13] | inhibition at 10 µM [14] | inhibition at 10 µM [15] | inhibition at 10 µM [16] | inhibition at 10 µM [17] | inhibition at 10 µM [18] | inhibition at 10 µM [19] | inhibition at 10 µM [20] | inhibition at 10 µM [21] | inhibition at 10 µM [22] | inhibition at 10 µM [23] | inhibition at 10 µM [25] | inhibition at 10 µM [26] | inhibition at 10 µM [27] | inhibition at 10 µM [28] | inhibition at 10 µM [29] | inhibition at 10 µM [30] | inhibition at 10 µM [31] | inhibition at 10 µM [32] | inhibition at 10 µM [33] | inhibition at 10 µM [34] | inhibition at 10 µM [35] | inhibition at 10 µM [36] | inhibition at 10 µM [37] | inhibition at 10 µM [38] | inhibition at 10 µM [39] | inhibition at 10 µM [40]
